Paper PMC5833010 (ACS Central Science, 2018)

Assays:
STH7 = assay: qRT-PCR of strigolactone-responsive gene STH7 in seedlings; assay type: in vivo, Arabidopsis; conditions: 10-day-old seedlings, 1 μM (+)-GR24 alone, 24 h
AtD14-GFP fusion protein = molecular target: T1, AtD14-GFP fusion protein (Arabidopsis thaliana, UniProt Q9SQR3); assay: AtD14-GFP degradation in 35S::AtD14-GFP/atd14-1 seedlings; assay type: in vivo; conditions: 1 μM (+)-GR24 alone, 24 h
T1 sequence (Q9SQR3 1-267): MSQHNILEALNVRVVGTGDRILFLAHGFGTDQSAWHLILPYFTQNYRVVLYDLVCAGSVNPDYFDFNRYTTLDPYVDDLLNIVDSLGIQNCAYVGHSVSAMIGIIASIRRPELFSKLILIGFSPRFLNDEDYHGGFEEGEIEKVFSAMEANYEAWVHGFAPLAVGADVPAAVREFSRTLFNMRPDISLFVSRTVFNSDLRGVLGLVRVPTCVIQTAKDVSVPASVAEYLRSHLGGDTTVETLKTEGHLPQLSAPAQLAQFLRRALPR

BRC1 = assay: qRT-PCR of strigolactone-responsive gene BRC1 in seedlings; assay type: in vivo, Arabidopsis; conditions: 10-day-old seedlings, 1 μM (+)-GR24 alone, 24 h

GFP signal in hypocotyl (AtD14-GFP) (AtD14-GFP fusion protein): striking reduction
Substance: (+)-GR24
expression of STH7 (STH7): increased
expression of BRC1 (BRC1): increased
